For one data set, the system named is Male Wistar rats. Description: ASSAY (XII) effect from single subcutaneous administration on plasma calcium in rats. It counts as in vivo, rat. The conditions noted are these: for Plasma calcium red (%) 0-12 h (maximal): single s.c., compared to vehicle. Here is the method: Assay (XII)—Effect from Single Subcutaneous Administration of Analogue on Plasma Calcium in Rats
Male Wistar rats (Taconic Europe, ˜250 g at test date) were acclimatized to handling prior to the study. Rats were divided in groups of five and subcutaneously dosed with test compound at time=0. At time T=−15 min; 1 h, 2 h, 4 h, 7 h, 12 h, and 24 h a blood sample was obtained and heparin stabilized plasma was analysed for total calcium (Cobas, Hitachi). Data are illustrated in graphs as mean±SEM.

The next data set deals with Male Sprague-Dawley rats. In words: ASSAY (XI) single subcutaneous administration, food intake monitored for 48 hours in rats. The note with it: for Food intake red (%) 0-24 h / Food intake red (%) 24-48 h: single s.c., compared to vehicle. It counts as in vivo, rat. From the text: Assay (XI)—Effect from Single Subcutaneous Administration of Analogue on Plasma Calcium in Rats
Male Sprague-Dawley rats (Taconic Europe, ˜250 g at test date) were acclimatized to reversed day light cycle (lights on from 10 PM to 10 AM) and single housing in online food intake monitoring system (Ellegaard MBRose, Denmark) prior to study start. […] Data are illustrated in graphs as mean±SEM.

The subject of a further data set is Sprague Dawley (SD) rats. Description: ASSAY (I) efficacy testing on appetite (food intake) using an ad libitum fed rat model. It counts as in vivo. The conditions noted are these: rats, single subcutaneous 1000 nmol/kg injection. From the text: Sprague Dawley (SD) rats from Taconic Europe, Denmark are used for the experiments. The rats have a body weight 200-250 g at the start of experiment. The rats arrive at least 10-14 days before start of experiment to allow acclimatization to experimental settings. During this period the animals are handled at least 2 times. After arrival rats are housed individually for one week in a reversed light/dark phase (meaning that lights are off during daytime and on during nighttime) for two weeks. Since rats are normally active and eat their major part of their daily food intake during the dark period, rats are dosed in the morning right before lights are turned off. This set-up results in the lowest data variation and highst test sensitivity. The experiment is conducted in the rats' home cages and rats have free access to food and water throughout the acclimatization period and the experiment period. Each dose of derivative is tested in a group of 5-8 rats. A vehicle group of 6-8 rats is included in each set of testing. Rats are dosed once according to body weight with a 0.01-3 mg/kg solution administered intraperitoneally (ip), orally (po) or subcutaneously (sc). The time of dosing is recorded for each group. After dosing, the rats are returned to their home cages, where they then have access to food and water. The food consumption is recorded individually continuously by online registration or manually every hour for 7 hours, and then after 24 h and sometimes 48 h. At the end of the experimental session, the animals are euthanized.
The individual data are recorded in Microsoft excel sheets. Outliers are excluded after applying the Grubbs statistical evaluation test for outliers, and the result is presented graphically using the GraphPad Prism program.

In data set [1] the test system is amylin receptor / calcitonin receptor. The conditions noted are these: background statement, cited from earlier work.

Entries after “also recorded” stand apart in the source; their conditions may differ. Like-named read-outs stand apart in the source and are kept apart here. Bridge positions count the residues as written; N and C are the ends. Ends that are not written are not given here.

The source of these data is US9023789B2, “Amylin analogs and pharmaceutical compositions thereof” (Novo Nordisk A/S, priority 2012, dated 2015).

`CC(C)C[C@H](NC(=O)[C@H](CCCCN)NC(=O)CNC(=O)[C@H](CC(C)C)NC(=O)[C@@H](NC(=O)[C@@H]1CSSC[C@H](N)C(=O)N[C@@H](CO)C(=O)N[C@@H](CC(N)=O)C(=O)N[C@@H](CC(C)C)C(=O)N[C@@H](CO)C(=O)N[C@@H]([C@@H](C)O)C(=O)N1)C(C)C)C(=O)N[C@@H](CO)C(=O)N[C@@H](CCC(N)=O)C(=O)N[C@@H](CCC(=O)O)C(=O)N[C@@H](CC(C)C)C(=O)N[C@@H](Cc1c[nH]cn1)C(=O)N[C@@H](CCCCN)C(=O)N[C@@H](CC(C)C)C(=O)N[C@@H](CCC(N)=O)C(=O)N[C@H](C(=O)N[C@@H](Cc1ccc(O)cc1)C(=O)N1CCC[C@H]1C(=O)N[C@@H](CCCNC(=N)N)C(=O)N[C@H](C(=O)N[C@@H](CC(N)=O)C(=O)N[C@H](C(=O)NCC(=O)N[C@@H](CO)C(=O)NCC(=O)N[C@H](C(=O)N1CCC[C@H]1C(N)=O)[C@@H](C)O)[C@@H](C)O)[C@@H](C)O)[C@@H](C)O` [salmon calcitonin, reference compound]: the plasma calcium entry in the data set with Male Wistar rats (dose 30 nmol/kg) is “below 1.7 mM”. In the data set on Male Wistar rats (3 nmol/kg), the “Plasma calcium red (%) 0-12 h (maximal)” value came to 35%. Besides, the “Plasma calcium red (%) 0-12 h (maximal)” value in the data set on Male Wistar rats (30 nmol/kg) is listed as 39%. In the data set with Male Sprague-Dawley rats (30 nmol/kg), the “Food intake red (%) 0-24 h” value came out at 87% and the “Food intake red (%) 24-48 h” value is on record as 19%. For the same molecule, the “food intake monitored over 48 hours” value in the data set with Male Sprague-Dawley rats (single subcutaneous administration, 30 nmol/kg, versus vehicle) is “reduction of food intake; also recorded: reduces food intake”.

Take “Pramlintide (KCNTATCATQRLANFLVHSSNNFGPILPPTNVGSNTY-NH2; disulfide 2-7; UniProt P10997 34-70, looked up, variant A25P S28P S29P) [reference compound]”: the “Plasma calcium red (%) 0-12 h (maximal)” value in the data set with Male Wistar rats (1000 nmol/kg) is reported as 28%. In the data set with Male Sprague-Dawley rats (1000 nmol/kg), the “Food intake red (%) 0-24 h” value is 25% and the “Food intake red (%) 24-48 h” value amounted to 0%. The “reduction of food intake” value in the data set with Sprague Dawley (SD) rats turned out to be 25%. Further, the “potency on the amylin receptor relative to the calcitonin receptor” value in data set [1] is given as “approximately 14 times”. Moreover, the “potency on the amylin receptor relative to the calcitonin receptor” value in data set [1] (listed as pramlintide) is on record as 14 times.
